Consider 34 compounds from patent US7960377B2 (priority 2008, dated 2011).

The assay deals with human CB1 receptor (Homo sapiens, UniProt P21554). The experiment in a line: cell-based. The note with it: for inverse agonist mark, human CB1 receptor: asterisk at the compound number.

A value given as a limit tells only on which side of the number the result lay.

Sequence of human CB1 receptor (P21554 whole entry): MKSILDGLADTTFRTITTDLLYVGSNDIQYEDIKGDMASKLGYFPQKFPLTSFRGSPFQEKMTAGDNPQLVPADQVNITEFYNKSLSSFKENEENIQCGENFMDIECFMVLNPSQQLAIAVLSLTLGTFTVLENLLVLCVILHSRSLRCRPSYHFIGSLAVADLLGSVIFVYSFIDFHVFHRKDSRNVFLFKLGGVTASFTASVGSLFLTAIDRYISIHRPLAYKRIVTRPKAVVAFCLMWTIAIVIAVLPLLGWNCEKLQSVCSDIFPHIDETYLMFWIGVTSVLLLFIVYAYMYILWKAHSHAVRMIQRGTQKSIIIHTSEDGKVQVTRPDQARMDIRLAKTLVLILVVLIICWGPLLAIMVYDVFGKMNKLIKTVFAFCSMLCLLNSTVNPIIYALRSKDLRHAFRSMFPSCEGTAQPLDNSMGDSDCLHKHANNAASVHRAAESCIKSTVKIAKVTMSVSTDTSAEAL

`CC(C)(C)NC(=O)c1cnc2c(c1)N(S(=O)(=O)c1ccc(Cl)cc1Cl)CCO2` [Example 54, N-tert-butyl-1-(2,4-dichlorophenylsulfonyl)-2,3-dihydro-1H-pyrido[2,3-b][1,4]oxazine-7-carboxamide] showed a concentration giving a half-maximal response (EC50) greater than 30 µM.
The compound `Cc1cc(F)ccc1S(=O)(=O)N1CCOc2ncc(C(=O)NC(C)(C)C)cc21` [Example 56, N-tert-butyl-1-(4-fluoro-2-methylphenylsulfonyl)-2,3-dihydro-1H-pyrido[2,3-b][1,4]oxazine-7-carboxamide] displayed a concentration giving a half-maximal response (EC50) greater than 30 µM.
`CC(C)(C)NC(=O)c1cnc2c(c1)N(S(=O)(=O)c1ccc(F)cc1Cl)CCO2` [Example 57, N-tert-butyl-1-(2-chloro-4-fluorophenylsulfonyl)-2,3-dihydro-1H-pyrido[2,3-b][1,4]oxazine-7-carboxamide] yielded an EC50 greater than 30 µM.
Still for that read-out and setting: for `CC(C)(C)NC(=O)c1cnc2c(c1)N(S(=O)(=O)Cc1ccccc1)CCO2` [Example 60, 1-(benzylsulfonyl)-N-tert-butyl-2,3-dihydro-1H-pyrido[2,3-b][1,4]oxazine-7-carboxamide] the value was greater than 30 µM.
For the compound `CC(C)(C)NC(=O)c1cnc2c(c1)N(S(=O)(=O)Cc1ccc(Cl)cc1)CCO2` [Example 61, N-tert-butyl-1-(4-chlorobenzylsulfonyl)-2,3-dihydro-1H-pyrido[2,3-b][1,4]oxazine-7-carboxamide], the “inverse agonist mark, human CB1 receptor” value is 2, 3, 5, 7, 8, 10, 39, 58, 61*, 69, 93*, 101, 102, 109, 110, 111, 112,.
With `CC(C)(C)NC(=O)c1cnc2c(c1)N(S(=O)(=O)Cc1ccc(F)cc1)CCO2` [Example 62, N-tert-butyl-1-(4-fluorobenzylsulfonyl)-2,3-dihydro-1H-pyrido[2,3-b][1,4]oxazine-7-carboxamide], the EC50 was greater than 30 µM.
`CC(C)(CN1CCCCC1)NC(=O)c1cnc2c(c1)N(S(=O)(=O)c1ccc(C(F)(F)F)cc1)CCO2` [Example 77, N-(2-methyl-1-(piperidin-1-yl)propan-2-yl)-1-(4-(trifluoromethyl)phenylsulf-onyl)-2,3-dihydro-1H-pyrido[2,3-b][1,4]oxazine-7-carboxamide] registered an EC50 greater than 30 µM.
On the same count and under the same terms, for `CCCS(=O)(=O)N1CCOc2ncc(C(=O)NC(C)(C)C)cc21` [Example 79, N-tert-butyl-1-(propylsulfonyl)-2,3-dihydro-1H-pyrido[2,3-b][1,4]oxazine-7-carboxamide] the value was greater than 30 µM.
Regarding `CC(C)(C)NC(=O)c1cnc2c(c1)N(S(=O)(=O)c1ccc(C(C)(C)C)cc1)CCO2` [Example 82, N-tert-butyl-1-(4-tert-butylphenylsulfonyl)-2,3-dihydro-1H-pyrido[2,3-b][1,4]oxazine-7-carboxamide], the EC50 is greater than 30 µM.
Same read-out and setting: in the case of `CC(C)(C)NC(=O)c1cnc2c(c1)N(S(=O)(=O)c1cccc(OC(F)(F)F)c1)CCO2` [Example 85, N-tert-butyl-1-(3-(trifluoromethoxy)phenyl-sulfonyl)-2,3-dihydro-1H-pyrido[2,3-b][1,4]oxazine-7-carboxamide] it was greater than 30 µM; in that of `Cc1cccc(S(=O)(=O)N2CCOc3ncc(C(=O)NC(C)(C)C)cc32)c1` [Example 86, N-tert-butyl-1-(m-tolylsulfonyl)-2,3-dihydro-1H-pyrido[2,3-b][1,4]oxazine-7-carboxamide], greater than 30 µM.
In the case of `CC(C)(C)NC(=O)c1cnc2c(c1)N(S(=O)(=O)c1ccc(Oc3ccccc3)cc1)CCO2` [Example 93, N-tert-butyl-1-(4-phenoxyphenylsulfonyl)-2,3-dihydro-1H-pyrido[2,3-b][1,4]oxazine-7-carboxamide], the “inverse agonist mark, human CB1 receptor” value is reported as 2, 3, 5, 7, 8, 10, 39, 58, 61*, 69, 93*, 101, 102, 109, 110, 111, 112,.
Turning to `COc1ccc(S(=O)(=O)N2CCOc3ncc(C(=O)NC(C)(C)CO)cc32)cc1Cl` [Example 100, 1-(3-chloro-4-methoxyphenylsulfonyl)-N-(1-hydroxy-2-methylpropan-2-yl)-2,3-dihydro-1H-pyrido[2,3-b][1,4]oxazine-7-carboxamide], the EC50 was greater than 30 µM.
Compound `COc1ccc(S(=O)(=O)N2CCOc3ncc(C(=O)NCC(C)(C)O)cc32)cc1F` [Example 105] came in with an EC50 greater than 30 µM.
`CC(C)(O)CNC(=O)c1cnc2c(c1)N(S(=O)(=O)c1ccc(F)cc1F)CCO2` [Example 106, 1-(2,4-difluorophenylsulfonyl)-N-(2-hydroxy-2-methylpropyl)-2,3-dihydro-1H-pyrido[2,3-b][1,4]oxazine-7-carboxamide] yielded an EC50 greater than 30 µM.
With `COc1ccc(S(=O)(=O)N2CCOc3ncc(C(=O)NCC(C)(C)O)cc32)c(F)c1` [Example 107], the EC50 was greater than 30 µM.
On to `CC(C)(O)CNC(=O)c1cnc2c(c1)N(S(=O)(=O)c1ccc(F)c(Cl)c1)CCO2` [Example 108, 1-(3-chloro-4-fluorophenylsulfonyl)-N-(2-hydroxy-2-methylpropyl)-2,3-dihydro-1H-pyrido[2,3-b][1,4]oxazine-7-carboxamide], for which the EC50 is greater than 30 µM.
On to `O=C(NCCO)c1cnc2c(c1)N(S(=O)(=O)c1ccc(Cl)c(Cl)c1)CCO2` [Example 114, 1-(3,4-dichlorophenyl-sulfonyl)-N-(2-hydroxyethyl)-2,3-dihydro-1H-pyrido[2,3-b][1,4]oxazine-7-carboxamide], for which the EC50 is greater than 30 µM.
The compound `CN(CCO)C(=O)c1cnc2c(c1)N(S(=O)(=O)c1ccc(Cl)c(Cl)c1)CCO2` [Example 120, 1-(3,4-dichlorophenyl-sulfonyl)-N-(2-hydroxy-ethyl)-N-methyl-2,3-dihydro-1H-pyrido[2,3-b][1,4]oxazine-7-carboxamide] returned an EC50 greater than 30 µM.
The same measure, in the same setting: in the case of `O=C(c1cnc2c(c1)N(S(=O)(=O)c1ccc(Cl)c(Cl)c1)CCO2)N1CCC[C@@H]1CO` [Example 122, (R)-(1-(3,4-dichlorophenyl-sulfonyl)-2,3-dihydro-1H-pyrido[2,3-b][1,4]oxazin-7-yl)(2-(hydroxymethyl)pyrrolidin-1-yl)methanone] it was greater than 30 µM; in that of `CN1CCN(C(=O)c2cnc3c(c2)N(S(=O)(=O)c2ccc(Cl)c(Cl)c2)CCO3)CC1` [Example 123, (1-(3,4-dichlorophenyl-sulfonyl)-2,3-dihydro-1H-pyrido [2,3-b][1,4]oxazin-7-yl)(4-methylpiperazin-1-yl)methanone], greater than 30 µM; in that of `O=C(c1cnc2c(c1)N(S(=O)(=O)c1ccc(Cl)c(Cl)c1)CCO2)N1CCC(F)(F)C1` [Example 126, (1-(3,4-dichlorophenyl-sulfonyl)-2,3-dihydro-1H-pyrido[2,3-b][1,4]oxazin-7-yl)(3,3-difluoro-pyrrolidin-1-yl)methanone], greater than 30 µM.
Turning to `O=C(c1cnc2c(c1)N(S(=O)(=O)c1ccc(Cl)c(Cl)c1)CCO2)N1CCC(O)CC1` [Example 127, (1-(3,4-dichlorophenyl-sulfonyl)-2,3-dihydro-1H-pyrido[2,3-b][1,4]oxazin-7-yl)(4-hydroxypiperidin-1-yl)methanone], the concentration for a half-maximal effect (EC50) was greater than 30 µM.
The same measure, in the same setting: in the case of `O=C(c1cnc2c(c1)N(S(=O)(=O)c1ccc(Cl)c(Cl)c1)CCO2)N1CC(F)(F)C1` [Example 128, (1-(3,4-dichlorophenyl-sulfonyl)-2,3-dihydro-1H-pyrido[2,3-b][1,4]oxazin-7-yl)(3,3-difluoroazetidin-1-yl)methanone] it was greater than 30 µM.
Still for that read-out and setting: in the case of `COC1CN(C(=O)c2cnc3c(c2)N(S(=O)(=O)c2ccc(Cl)c(Cl)c2)CCO3)C1` [Example 129, (1-(3,4-dichlorophenyl-sulfonyl)-2,3-dihydro-1H-pyrido[2,3-b][1,4]oxazin-7-yl)(3-methoxyazetidin-1-yl)methanone] it was greater than 30 µM.
`O=C(c1cnc2c(c1)N(S(=O)(=O)c1ccc(Cl)c(Cl)c1)CCO2)N1CCC1` [Example 130, azetidin-1-yl(1-(3,4-dichlorophenylsulfonyl)-2,3-dihydro-1H-pyrido[2,3-b][1,4]oxazin-7-yl)methanone]: the “inverse agonist mark, human CB1 receptor” value was 130*, 136, 141, 142, 149, 156, 157, 163, 164, 168, 173, 183, 195,.
The compound `CCC(C)(C)NC(=O)c1cnc2c(c1)N(S(=O)(=O)N(C)C)CCO2` [Example 143, 1-(N,N-dimethyl-sulfamoyl)-N-tert-pentyl-2,3-dihydro-1H-pyrido[2,3-b][1,4]oxazine-7-carboxamide] gave an EC50 greater than 30 µM.
In turn, `CN(C)S(=O)(=O)N1CCOc2ncc(C(=O)NC(C)(C)CO)cc21` [Example 144, 1-(N,N-dimethyl-sulfamoyl)-N-(1-hydroxy-2-methylpropan-2-yl)-2,3-dihydro-1H-pyrido[2,3-b][1,4]oxazine-7-carboxamide] showed an EC50 greater than 30 µM.
With `CN(C)S(=O)(=O)N1CCOc2ncc(C(=O)NC(C)(C)C)cc21` [Example 145, N-tert-butyl-1-(N,N-dimethylsulfamoyl)-2,3-dihydro-1H-pyrido[2,3-b][1,4]oxazine-7-carboxamide], the EC50 was greater than 30 µM.
Still for that read-out and setting: for `CC(C)(CN1CCOCC1)NC(=O)c1cnc2c(c1)N(S(=O)(=O)N1CCCCC1)CCO2` [Example 147, N-(2-methyl-1-morpholinopropan-2-yl)-1-(piperidin-1-ylsulfonyl)-2,3-dihydro-1H-pyrido[2,3-b][1,4]oxazine-7-carboxamide] the value was greater than 30 µM; for `CCC(C)(C)NC(=O)c1cnc2c(c1)N(S(=O)(=O)N1CCN(C)CC1)CCO2` [Example 175, 1-(4-methylpiperazin-1-ylsulfonyl)-N-tert-pentyl-2,3-dihydro-1H-pyrido[2,3-b][1,4]oxazine-7-carboxamide], greater than 30 µM.
As to `CC(C)(C)NC(=O)c1cnc2c(c1)N(S(=O)(=O)N1CCC(N3CCCC3)CC1)CCO2` [Example 176, N-tert-butyl-1-(4-(pyrrolidin-1-yl)piperidin-1-ylsulfonyl)-2,3-dihydro-1H-pyrido[2,3-b][1,4]oxazine-7-carboxamide], the EC50 is greater than 30 µM.
Consider `CC(C)(CO)NC(=O)c1cnc2c(c1)N(S(=O)(=O)NCc1ccccc1)CCO2` [Example 179, 1-(N-benzylsulfamoyl)-N-(1-hydroxy-2-methylpropan-2-yl)-2,3-dihydro-1H-pyrido[2,3-b][1,4]oxazine-7-carboxamide], for which the EC50 was greater than 30 µM.
`CC(C)CNS(=O)(=O)N1CCOc2ncc(C(=O)NC(C)(C)CO)cc21` [Example 181, N-(1-hydroxy-2-methylpropan-2-yl)-1-(N-isobutylsulfamoyl)-2,3-dihydro-1H-pyrido[2,3-b][1,4]oxazine-7-carboxamide] yielded an EC50 greater than 30 µM.

The EC50 is the concentration needed to bring the measured effect to its halfway point.
